Test results as given in US12187699B2, “GSPT1 compounds and methods of use of the novel compounds” (BRISTOL-MYERS SQUIBB COMPANY, priority 2022, dated 2025).

These compounds were tested against T1, ePL-tagged GSPT1 (Homo sapiens, UniProt P15170+Q96SW2) (assay: GSPT1 DiscoverX Degradation Assay). Settings: DF15 multiple myeloma cells expressing ePL-tagged GSPT1; twenty hours; minimum of percent of control curve (Ataluren control Y constant=0, DMSO control = Y max).
T1 construct: expressed in transfected cells; host or cells: DF15 multiple myeloma cells
T1 sequence (P15170 whole entry): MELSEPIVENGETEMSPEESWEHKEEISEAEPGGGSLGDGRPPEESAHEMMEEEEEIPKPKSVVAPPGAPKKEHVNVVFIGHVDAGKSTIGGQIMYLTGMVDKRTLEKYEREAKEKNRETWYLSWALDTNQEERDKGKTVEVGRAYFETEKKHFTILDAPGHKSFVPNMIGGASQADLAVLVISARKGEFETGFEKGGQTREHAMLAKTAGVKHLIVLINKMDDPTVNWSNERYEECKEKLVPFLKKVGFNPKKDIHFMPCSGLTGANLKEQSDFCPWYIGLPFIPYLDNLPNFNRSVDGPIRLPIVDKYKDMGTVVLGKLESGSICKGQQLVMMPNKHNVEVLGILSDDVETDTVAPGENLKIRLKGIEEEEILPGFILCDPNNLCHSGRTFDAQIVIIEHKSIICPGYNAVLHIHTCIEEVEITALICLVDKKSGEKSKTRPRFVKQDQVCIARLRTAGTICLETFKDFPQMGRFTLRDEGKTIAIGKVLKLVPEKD
T1 sequence (Q96SW2 whole entry): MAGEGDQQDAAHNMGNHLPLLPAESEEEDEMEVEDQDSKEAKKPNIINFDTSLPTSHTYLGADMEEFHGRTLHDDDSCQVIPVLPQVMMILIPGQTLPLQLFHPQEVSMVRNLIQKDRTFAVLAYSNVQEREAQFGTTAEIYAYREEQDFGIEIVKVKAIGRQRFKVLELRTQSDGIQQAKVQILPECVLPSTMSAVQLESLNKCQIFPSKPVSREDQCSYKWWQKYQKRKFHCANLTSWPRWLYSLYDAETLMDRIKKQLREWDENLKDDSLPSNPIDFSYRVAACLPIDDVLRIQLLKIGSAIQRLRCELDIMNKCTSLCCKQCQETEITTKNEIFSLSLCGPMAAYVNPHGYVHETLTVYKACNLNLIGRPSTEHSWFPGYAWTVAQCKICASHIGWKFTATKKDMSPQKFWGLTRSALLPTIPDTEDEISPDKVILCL
T1 sequence (Q16531 whole entry partner): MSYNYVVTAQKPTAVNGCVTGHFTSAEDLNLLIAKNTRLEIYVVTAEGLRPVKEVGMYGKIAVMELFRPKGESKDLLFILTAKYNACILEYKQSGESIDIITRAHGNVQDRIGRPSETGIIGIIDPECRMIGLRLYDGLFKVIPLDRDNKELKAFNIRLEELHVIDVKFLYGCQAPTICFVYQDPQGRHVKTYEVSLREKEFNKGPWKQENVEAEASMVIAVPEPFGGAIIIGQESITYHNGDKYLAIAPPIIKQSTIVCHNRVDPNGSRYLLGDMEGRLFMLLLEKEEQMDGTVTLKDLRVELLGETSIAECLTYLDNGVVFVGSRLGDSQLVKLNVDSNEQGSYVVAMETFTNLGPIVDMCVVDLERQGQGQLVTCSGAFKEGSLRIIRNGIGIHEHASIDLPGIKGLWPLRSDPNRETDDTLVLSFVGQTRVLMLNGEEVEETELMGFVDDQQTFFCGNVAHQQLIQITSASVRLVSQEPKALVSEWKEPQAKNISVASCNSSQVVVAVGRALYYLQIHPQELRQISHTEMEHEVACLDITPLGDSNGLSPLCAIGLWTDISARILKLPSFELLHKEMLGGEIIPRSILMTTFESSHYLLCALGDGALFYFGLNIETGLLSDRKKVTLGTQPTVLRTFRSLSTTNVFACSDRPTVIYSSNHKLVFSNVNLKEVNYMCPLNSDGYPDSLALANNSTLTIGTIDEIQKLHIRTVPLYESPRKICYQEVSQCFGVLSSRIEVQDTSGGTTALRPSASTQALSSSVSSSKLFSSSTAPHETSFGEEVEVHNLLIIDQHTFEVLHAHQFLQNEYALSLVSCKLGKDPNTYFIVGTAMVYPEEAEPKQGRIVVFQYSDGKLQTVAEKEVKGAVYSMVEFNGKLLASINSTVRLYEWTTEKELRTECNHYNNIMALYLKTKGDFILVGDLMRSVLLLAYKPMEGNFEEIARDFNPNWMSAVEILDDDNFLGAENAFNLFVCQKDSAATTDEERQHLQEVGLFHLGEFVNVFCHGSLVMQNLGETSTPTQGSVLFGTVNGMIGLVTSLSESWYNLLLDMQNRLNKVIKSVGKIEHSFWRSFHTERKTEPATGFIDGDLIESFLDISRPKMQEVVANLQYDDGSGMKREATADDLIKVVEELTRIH
Format: cell-based
Method: GSPT1 DiscoverX Degradation Assay.
Compounds were dispensed by an acoustic dispenser (ATS Acoustic Transfer System from EDC Biosystems) into a 384-well in a 10 pt dose response curve using 3 fold dilutions starting at 10 uM and going down to 0.0005 uM in DMSO. A DMSO control is added to the assay. […] Assay plates were incubated at 37° C. with 5% CO2 for twenty hours. After incubation, 25 μl of the InCELL Hunter™ Detection Reagent Working Solution (DiscoverX, cat #96-0002, Fremont, CA) was added to each well and incubated at room temperature for 30 minutes protected from light. After 30 minutes, luminescence was read on a PHERAstar luminometer (Cary, NC).
The minimum Y is reference to the Y constant. In the GSPT1 degradation assay, we use Ataluren® (luciferase inhibitor) as the control with a Y constant=0. The maximum limit is the Y max DMSO control. All percent of control GSPT1 degradation curves were processed and evaluated using Activity Base (IDBS).

Row | GSPT1 Degradation Ymin | SMILES
1 | 17.59 | NCc1ccc(CO[C@H]2CC[C@H](NC(=O)NCc3ccc4c(c3)CN(C3CCC(=O)NC3=O)C4=O)CC2)cc1 (stereo partly drawn) [Example 35, 3-{[2-(2,6-dioxopiperidin-3-yl)-1-oxo-2,3-dihydro-1H-isoindol-5-yl]methyl}-1-[(1r,4r)-4-{[4-(aminomethyl)phenyl]methoxy}cyclohexyl]urea]
2 | 4.00 | O=C1CCC(N2Cc3cc(CNC(=O)Nc4ccc(OCc5ccccc5O)cc4)ccc3C2=O)C(=O)N1 (stereo not drawn) [Example 10, 1-((2-(2,6-dioxopiperidin-3-yl)-1-oxoisoindolin-5-yl)methyl)-3-(4-((2-hydroxybenzyl)oxy)phenyl)urea]
3 | 22.76 | C[C@]1(N2Cc3cc(CNC(=O)Nc4ccc(OCc5ccc(CN)cc5)cc4)ccc3C2=O)CCC(=O)NC1=O [Example 32, 1-(4-{[4-(aminomethyl)phenyl]methoxy}phenyl)-3-({2-[(3S)-3-methyl-2,6-dioxopiperidin-3-yl]-1-oxo-2,3-dihydro-1H-isoindol-5-yl}methyl)urea]
4 | 7.50 | NCc1ccc(COc2ccc(NC(=O)NCc3ccc4c(c3)CN(C3CCC(=O)NC3=O)C4=O)cn2)cc1 (stereo not drawn) [Example 20, 1-(6-{[4-(aminomethyl)phenyl]methoxy}pyridin-3-yl)-3-{[2-(2,6-dioxopiperidin-3-yl)-1-oxo-2,3-dihydro-1H-isoindol-5-yl]methyl}urea]
5 | 12.67 | NCc1ccc(COc2ccc(NC(=O)NCc3ccc4c(c3)CN(C3CCC(=O)NC3=O)C4=O)cc2)nn1 (stereo not drawn) [Example 16, 1-(4-{[6-(aminomethyl)pyridazin-3-yl]methoxy}phenyl)-3-{[2-(2,6-dioxopiperidin-3-yl)-1-oxo-2,3-dihydro-1H-isoindol-5-yl]methyl}urea]
6 | 3.00 | O=C1CCC(N2Cc3cc(CNC(=O)Nc4ccc(OCc5ccccc5)cc4)ccc3C2=O)C(=O)N1 (stereo not drawn) [Example 6, 1-[4-(benzyloxy)phenyl]-3-{[2-(2,6-dioxopiperidin-3-yl)-1-oxo-2,3-dihydro-1H-isoindol-5-yl]methyl}urea]
7 | 10.44 | CCc1cc(CN)ccc1COc1ccc(NC(=O)NCc2ccc3c(c2)CN(C2CCC(=O)NC2=O)C3=O)cc1 (stereo not drawn) [Example 21, 1-(4-{[4-(aminomethyl)-2-ethylphenyl]methoxy}phenyl)-3-{[2-(2,6-dioxopiperidin-3-yl)-1-oxo-2,3-dihydro-1H-isoindol-5-yl]methyl}urea]
8 | 16.88 | NCc1ccc(COc2ccc(NC(=O)NCc3ccc4c(c3)CN(C3CCC(=O)NC3=O)C4=O)cc2Cl)cc1 (stereo not drawn) [Example 29, 1-(4-((4-(aminomethyl)benzyl)oxy)-3-chlorophenyl)-3-((2-(2,6-dioxopiperidin-3-yl)-1-oxoisoindolin-5-yl)methyl)urea]
9 | 15.91 | Cc1cc(NC(=O)NCc2ccc3c(c2)CN(C2CCC(=O)NC2=O)C3=O)ccc1OCc1ccc(CN)cc1 (stereo not drawn) [Example 17, 1-(4-{[4-(aminomethyl)phenyl]methoxy}-3-methylphenyl)-3-{[2-(2,6-dioxopiperidin-3-yl)-1-oxo-2,3-dihydro-1H-isoindol-5-yl]methyl}urea]
10 | 9.46 | CCCc1cc(CN)ccc1COc1ccc(NC(=O)NCc2ccc3c(c2)CN(C2CCC(=O)NC2=O)C3=O)cc1 (stereo not drawn) [Example 22, 1-(4-{[4-(aminomethyl)-2-n-propylphenyl]methoxy}phenyl)-3-{[2-(2,6-dioxopiperidin-3-yl)-1-oxo-2,3-dihydro-1H-isoindol-5-yl]methyl}urea]
11 | 4.34 | NCc1ccc(COc2ccc(NC(=O)NCc3ccc4c(c3)CN(C3CCC(=O)NC3=O)C4=O)cc2)cc1 (stereo not drawn) [Example 2, 1-[4-[[4-(aminomethyl)phenyl]methoxy]phenyl]-3-[[2-(2,6-dioxo-3-piperidyl)-1-oxo-isoindolin-5-yl]methyl]urea]
12 | 6.75 | NCc1ccc(COc2ccc(NC(=O)NCc3ccc4c(c3)CN(C3CCC(=O)NC3=O)C4=O)cc2)nc1 (stereo not drawn) [Example 13, 1-(4-{[5-(aminomethyl)pyridin-2-yl]methoxy}phenyl)-3-{[2-(2,6-dioxopiperidin-3-yl)-1-oxo-2,3-dihydro-1H-isoindol-5-yl]methyl}urea]
13 | 5.39 | Cc1cc(CN)ccc1COc1ccc(NC(=O)NCc2ccc3c(c2)CN(C2CCC(=O)NC2=O)C3=O)cc1 (stereo not drawn) [Example 12, 1-(4-{[4-(aminomethyl)-2-methylphenyl]methoxy}phenyl)-3-{[2-(2,6-dioxopiperidin-3-yl)-1-oxo-2,3-dihydro-1H-isoindol-5-yl]methyl}urea]
14 | 10.20 | Nc1ccccc1COc1ccc(NC(=O)NCc2ccc3c(c2)CN(C2CCC(=O)NC2=O)C3=O)cc1 (stereo not drawn) [Example 28, 1-(4-((2-aminobenzyl)oxy)phenyl)-3-((2-(2,6-dioxopiperidin-3-yl)-1-oxoisoindolin-5-yl)methyl)urea]
15 | 10.86 | CC(C)c1cc(CN)ccc1COc1ccc(NC(=O)NCc2ccc3c(c2)CN(C2CCC(=O)NC2=O)C3=O)cc1 (stereo not drawn) [Example 30, 1-(4-{[4-(aminomethyl)-2-i-propylphenyl]methoxy}phenyl)-3-{[2-(2,6-dioxopiperidin-3-yl)-1-oxo-2,3-dihydro-1H-isoindol-5-yl]methyl}urea]
16 | 7.07 | NCc1ccc(COc2ccc(NC(=O)NCc3ccc4c(c3)CN(C3CCC(=O)NC3=O)C4=O)cc2)c(OC(F)F)c1 (stereo not drawn) [Example 31, 1-(4-{[4-(aminomethyl)-2-diflouromethoxyphenyl]methoxy}phenyl)-3-{[2-(2,6-dioxopiperidin-3-yl)-1-oxo-2,3-dihydro-1H-isoindol-5-yl]methyl}urea]
17 | 60.95 | C[C@@]1(N2Cc3cc(CNC(=O)Nc4ccc(OCc5ccc(CN)cc5)cc4)ccc3C2=O)CCC(=O)NC1=O [Example 33, 1-(4-{[4-(aminomethyl)phenyl]methoxy}phenyl)-3-({2-[(3R)-3-methyl-2,6-dioxopiperidin-3-yl]-1-oxo-2,3-dihydro-1H-isoindol-5-yl}methyl)urea]
18 | 4.00 | O=C1CCC(N2Cc3cc(CNC(=O)Nc4ccc(OCc5cccc(CO)c5)cc4)ccc3C2=O)C(=O)N1 (stereo not drawn) [Example 7, 1-((2-(2,6-dioxopiperidin-3-yl)-1-oxoisoindolin-5-yl)methyl)-3-(4-((3-(hydroxymethyl)benzyl)oxy)phenyl)urea]
19 | 6.80 | NCc1cccc(COc2ccc(NC(=O)NCc3ccc4c(c3)CN(C3CCC(=O)NC3=O)C4=O)cc2)c1 (stereo not drawn) [Example 4, 1-(4-((3-(aminomethyl)benzyl)oxy)phenyl)-3-((2-(2,6-dioxopiperidin-3-yl)-1-oxoisoindolin-5-yl)methyl)urea]
20 | 6.55 | NCc1ccc(COc2ccc(NC(=O)NCc3ccc4c(c3)CN(C3CCC(=O)NC3=O)C4=O)nn2)cc1 (stereo not drawn) [Example 19, 1-(6-{[4-(aminomethyl)phenyl]methoxy}pyridazin-3-yl)-3-{[2-(2,6-dioxopiperidin-3-yl)-1-oxo-2,3-dihydro-1H-isoindol-5-yl]methyl}urea]
21 | 3.10 | NCc1cnc(COc2ccc(NC(=O)NCc3ccc4c(c3)CN(C3CCC(=O)NC3=O)C4=O)cc2)nc1 (stereo not drawn) [Example 15, 1-(4-{[5-(aminomethyl)pyrimidin-2-yl]methoxy}phenyl)-3-{[2-(2,6-dioxopiperidin-3-yl)-1-oxo-2,3-dihydro-1H-isoindol-5-yl]methyl}urea]
22 | 4.00 | O=C1CCC(N2Cc3cc(CNC(=O)Nc4ccc(OCc5ccccc5CO)cc4)ccc3C2=O)C(=O)N1 (stereo not drawn) [Example 8, 1-((2-(2,6-dioxopiperidin-3-yl)-1-oxoisoindolin-5-yl)methyl)-3-(4-((2-(hydroxymethyl)benzyl)oxy)phenyl)urea]
23 | 3.00 | O=C1CCC(N2Cc3cc(CNC(=O)Nc4ccc(OCc5ccc(CO)cc5)cc4)ccc3C2=O)C(=O)N1 (stereo not drawn) [Example 1, 1-((2-(2,6-dioxopiperidin-3-yl)-1-oxoisoindolin-5-yl)methyl)-3-(4-((4-(hydroxymethyl)benzyl)oxy)phenyl)urea]
24 | 6.71 | NCc1ccc(COc2ccc(NC(=O)NCc3ccc4c(c3)CN(C3CCC(=O)NC3=O)C4=O)cc2)c(F)c1 (stereo not drawn) [Example 11, 1-(4-{[4-(aminomethyl)-2-fluorophenyl]methoxy}phenyl)-3-{[2-(2,6-dioxopiperidin-3-yl)-1-oxo-2,3-dihydro-1H-isoindol-5-yl]methyl}urea]
25 | 7.47 | NC[C@H]1CC[C@H](COc2ccc(NC(=O)NCc3ccc4c(c3)CN(C3CCC(=O)NC3=O)C4=O)cc2)CC1 (stereo partly drawn) [Example 34, 3-{[2-(2,6-dioxopiperidin-3-yl)-1-oxo-2,3-dihydro-1H-isoindol-5-yl]methyl}-1-(4-{[(1r,4r)-4-(aminomethyl)cyclohexyl]methoxy}phenyl)urea]
26 | 7.30 | NCc1ccccc1COc1ccc(NC(=O)NCc2ccc3c(c2)CN(C2CCC(=O)NC2=O)C3=O)cc1 (stereo not drawn) [Example 3, 1-(4-((2-(aminomethyl)benzyl)oxy)phenyl)-3-((2-(2,6-dioxopiperidin-3-yl)-1-oxoisoindolin-5-yl)methyl)urea]
27 | 5.83 | NCc1ccc(COc2ccc(NC(=O)NCc3ccc4c(c3)CN(C3CCC(=O)NC3=O)C4=O)cc2)cn1 (stereo not drawn) [Example 14, 1-(4-{[6-(aminomethyl)pyridin-3-yl]methoxy}phenyl)-3-{[2-(2,6-dioxopiperidin-3-yl)-1-oxo-2,3-dihydro-1H-isoindol-5-yl]methyl}urea]
